Test results published in patent publication US20250206727A1, “HETEROCYCLIC SUBSTITUTED AROMATIC COMPOUND, PREPARATION METHOD THEREFOR, HERBICIDAL COMPOSITION AND APPLICATION” (QINGDAO KINGAGROOT CHEMICAL COMPOUND CO., LTD., priority 2022, published 2025).

How the values were obtained:
Test in all cases: Post-emergence test on weeds (greenhouse, spray at 2-3 leaf stage)
Assay type in all cases: in vivo
Set-up in all cases: key: Level 10: completely dead; Level 9: growth control rate greater than or equal to 90% and less than 100%; Level 8: growth control rate greater than or equal to 80% and less than 90%; Level 7: growth control rate greater than or equal to 70% and less than 80%; Level 6: growth control rate greater than or equal to 60% and less than 70%; Level 5: growth control rate greater than or equal to 50% and less than 60%; Level 4: growth control rate greater than or equal to 40% and less than 50%; Level 3: growth control rate greater than or equal to 30% and less than 40%; Level 2: growth control rate greater than or equal to 20% and less than 30%; Level 1: growth control rate less than 20%; Level 0: no effect
Conditions in all cases: 3 weeks after application
[1] = system: Setaria viridis
Excerpt: (§1) The activity level criteria for plant damage (i.e., growth control rate) are as follows: • Level 10: completely dead; • Level 9: growth control rate greater than or equal to 90% and less than 100%; • Level 8: growth control rate greater than or equal to 80% and less than 90%; • Level 7: growth control rate greater than or equal to 70% and less than 80%; • Level 6: growth control rate greater than or equal to 60% and less than 70%; • Level 5: growth control rate greater than or equal to 50% and less than 60%; • Level 4: growth control rate greater than or equal to 40% and less than 50%; • Level 3: growth control rate greater than or equal to 30% and less than 40%; • Level 2: growth control rate greater than or equal to 20% and less than 30%; • Level 1: growth control rate less than 20%; • Level 0: no effect.
(§2) The above growth control rates are fresh weight control rates.
(§3) Monocotyledonous and dicotyledonous weed seeds (Descurainia sophia, Capsella bursa-pastoris, Abutilon theophrasti, Galium spurium, Stellaria media, Lithospermum arvense, Rorippa indica, Alopecurus aequalis, Alopecurus japonicus, Eleusine indica, Beckmannia syzigachne, Sclerochloa dura, Erigeron canadensis, Phleum paniculatum, Veronica polita, Bromus japonicus, Aegilops tauschii, Phalaris arundinacea, Amaranthus retrofexus, Chenopodium, Commelina communis, Cichorium endivia, Convolvulus arvensis, Cirsium arvense, Solanum nigrum, Acalypha australis, Digitaria sanguinalis, Echinochloa crus-galli, Setaria viridis, Setaa pumila, Lepochloa chinensis, Monochona vaginalis, Sagitta trifolia, Schoenoplectiella juncoides, Cypenus rotundus, Cyperus ira, Cyperus difformis, Fimbristylis, Portulaca oleracea, Xanthium sibiricum, Ipomoea nil, Eschenbachia japonica, etc.) and major crop seeds (wheat, maize, paddy rice, soybean, cotton, oilseed rape, millet, sorghum, potato, sesame, castor plant, etc.) were placed in plastic pots filled with soil and then covered with 0.5-2 cm of soil to allow them to grow in a favorable greenhouse environment. Two weeks after sowing, the test plants were treated at the stage of 2-3 leaves. The test compounds of the present invention were individually dissolved with acetone, then added with Tween® 80, with 1.5 L/ha of methyl oleate emulsifiable concentrate as a synergist, diluted into solutions of certain concentrations using certain amount of water, and sprayed to the plants using a spray tower. After drug application, the experimental results on weeds were collected after 3 weeks of cultivation in a greenhouse. The compounds were applied at 500, 250, […], 15, and 7.5 g a.i./ha in triplicate, and the results were averaged.

[2] = system: Veronica polita
Excerpt: as §1, §2, §3

[3] = system: Abutilon theophrasti
Excerpt: as §1, §2, §3

[4] = system: Echinochloa crus-galli
Excerpt: as §1, §2, §3

[5] = system: Digitaria sanguinalis
Excerpt: as §1, §2, §3

[6] = system: Amaranthus retroflexus
Excerpt: as §1, §2, §3

CSCOC(=O)C1(C)ON=C(c2cc(-c3ncc(C(F)(F)F)cc3Cl)c(F)cc2Cl)O1 (stereo not drawn) [Compound 109]
10: activity level (fresh weight growth control rate), Setaria viridis ([1]; 60 g a.i./ha) | activity level (fresh weight growth control rate), Veronica polita ([2]; 60 g a.i./ha) | activity level (fresh weight growth control rate), Abutilon theophrasti ([3]; 60 g a.i./ha) | activity level (fresh weight growth control rate), Echinochloa crus-galli ([4]; 60 g a.i./ha) | activity level (fresh weight growth control rate), Digitaria sanguinalis ([5]; 60 g a.i./ha) | activity level (fresh weight growth control rate), Amaranthus retroflexus ([6]; 60 g a.i./ha)

CCOC(=O)C1ON=C(c2cc(-c3ncc(C(F)(F)F)cc3Cl)c(F)cc2Cl)O1 (stereo not drawn) [Compound 26]
10: activity level (fresh weight growth control rate), Setaria viridis ([1]; 60 g a.i./ha) | activity level (fresh weight growth control rate), Veronica polita ([2]; 60 g a.i./ha) | activity level (fresh weight growth control rate), Abutilon theophrasti ([3]; 60 g a.i./ha) | activity level (fresh weight growth control rate), Echinochloa crus-galli ([4]; 60 g a.i./ha) | activity level (fresh weight growth control rate), Digitaria sanguinalis ([5]; 60 g a.i./ha) | activity level (fresh weight growth control rate), Amaranthus retroflexus ([6]; 60 g a.i./ha)

COC(=O)C1(C)ON=C(c2cc(-c3ncc(Cl)cc3Cl)c(F)cc2Cl)O1 (stereo not drawn) [Compound 11]
10: activity level (fresh weight growth control rate), Setaria viridis ([1]; 60 g a.i./ha) | activity level (fresh weight growth control rate), Veronica polita ([2]; 60 g a.i./ha) | activity level (fresh weight growth control rate), Abutilon theophrasti ([3]; 60 g a.i./ha) | activity level (fresh weight growth control rate), Echinochloa crus-galli ([4]; 60 g a.i./ha) | activity level (fresh weight growth control rate), Digitaria sanguinalis ([5]; 60 g a.i./ha) | activity level (fresh weight growth control rate), Amaranthus retroflexus ([6]; 60 g a.i./ha)

CCCC1(C(=O)OC)ON=C(c2cc(-c3ncc(C(F)(F)F)cc3Cl)c(F)cc2Cl)O1 (stereo not drawn) [Compound 20]
10: activity level (fresh weight growth control rate), Setaria viridis ([1]; 60 g a.i./ha) | activity level (fresh weight growth control rate), Veronica polita ([2]; 60 g a.i./ha) | activity level (fresh weight growth control rate), Abutilon theophrasti ([3]; 60 g a.i./ha) | activity level (fresh weight growth control rate), Echinochloa crus-galli ([4]; 60 g a.i./ha) | activity level (fresh weight growth control rate), Digitaria sanguinalis ([5]; 60 g a.i./ha) | activity level (fresh weight growth control rate), Amaranthus retroflexus ([6]; 60 g a.i./ha)

CC1(C(=O)OC2CCCC2)ON=C(c2cc(-c3ncc(C(F)(F)F)cc3Cl)c(F)cc2Cl)O1 (stereo not drawn) [Compound 127]
10: activity level (fresh weight growth control rate), Setaria viridis ([1]; 60 g a.i./ha) | activity level (fresh weight growth control rate), Veronica polita ([2]; 60 g a.i./ha) | activity level (fresh weight growth control rate), Abutilon theophrasti ([3]; 60 g a.i./ha) | activity level (fresh weight growth control rate), Echinochloa crus-galli ([4]; 60 g a.i./ha) | activity level (fresh weight growth control rate), Digitaria sanguinalis ([5]; 60 g a.i./ha) | activity level (fresh weight growth control rate), Amaranthus retroflexus ([6]; 60 g a.i./ha)

COC(=O)C1(C)ON=C(c2cc(-c3ncc(C(F)(F)F)cc3Cl)c(F)cc2Cl)O1 (stereo not drawn) [Compound 15]
10: activity level (fresh weight growth control rate), Setaria viridis ([1]; 15 g a.i./ha) | activity level (fresh weight growth control rate), Veronica polita ([2]; 15 g a.i./ha) | activity level (fresh weight growth control rate), Abutilon theophrasti ([3]; 15 g a.i./ha) | activity level (fresh weight growth control rate), Echinochloa crus-galli ([4]; 15 g a.i./ha) | activity level (fresh weight growth control rate), Digitaria sanguinalis ([5]; 15 g a.i./ha) | activity level (fresh weight growth control rate), Amaranthus retroflexus ([6]; 15 g a.i./ha)

CC1(C(=O)OCCCF)ON=C(c2cc(-c3ncc(C(F)(F)F)cc3Cl)c(F)cc2Cl)O1 (stereo not drawn) [Compound 103]
10: activity level (fresh weight growth control rate), Setaria viridis ([1]; 60 g a.i./ha) | activity level (fresh weight growth control rate), Veronica polita ([2]; 60 g a.i./ha) | activity level (fresh weight growth control rate), Abutilon theophrasti ([3]; 60 g a.i./ha) | activity level (fresh weight growth control rate), Echinochloa crus-galli ([4]; 60 g a.i./ha) | activity level (fresh weight growth control rate), Digitaria sanguinalis ([5]; 60 g a.i./ha) | activity level (fresh weight growth control rate), Amaranthus retroflexus ([6]; 60 g a.i./ha)

C=CCCCOC(=O)C1(C)ON=C(c2cc(-c3ncc(C(F)(F)F)cc3Cl)c(F)cc2Cl)O1 (stereo not drawn) [Compound 106]
10: activity level (fresh weight growth control rate), Setaria viridis ([1]; 60 g a.i./ha) | activity level (fresh weight growth control rate), Veronica polita ([2]; 60 g a.i./ha) | activity level (fresh weight growth control rate), Abutilon theophrasti ([3]; 60 g a.i./ha) | activity level (fresh weight growth control rate), Echinochloa crus-galli ([4]; 60 g a.i./ha) | activity level (fresh weight growth control rate), Digitaria sanguinalis ([5]; 60 g a.i./ha) | activity level (fresh weight growth control rate), Amaranthus retroflexus ([6]; 60 g a.i./ha)

COC(=O)C1(C)ON=C(c2cc(-c3ncc(C(F)(F)F)cc3F)c(F)cc2Cl)O1 (stereo not drawn) [Compound 6]
10: activity level (fresh weight growth control rate), Setaria viridis ([1]; 60 g a.i./ha) | activity level (fresh weight growth control rate), Veronica polita ([2]; 60 g a.i./ha) | activity level (fresh weight growth control rate), Abutilon theophrasti ([3]; 60 g a.i./ha) | activity level (fresh weight growth control rate), Echinochloa crus-galli ([4]; 60 g a.i./ha) | activity level (fresh weight growth control rate), Digitaria sanguinalis ([5]; 60 g a.i./ha) | activity level (fresh weight growth control rate), Amaranthus retroflexus ([6]; 60 g a.i./ha)

CC(C)OC(=O)C1(C)ON=C(c2cc(-c3ncc(C(F)(F)F)cc3Cl)c(F)cc2Cl)O1 (stereo not drawn) [Compound 88]
10: activity level (fresh weight growth control rate), Setaria viridis ([1]; 60 g a.i./ha) | activity level (fresh weight growth control rate), Veronica polita ([2]; 60 g a.i./ha) | activity level (fresh weight growth control rate), Abutilon theophrasti ([3]; 60 g a.i./ha) | activity level (fresh weight growth control rate), Echinochloa crus-galli ([4]; 60 g a.i./ha) | activity level (fresh weight growth control rate), Digitaria sanguinalis ([5]; 60 g a.i./ha) | activity level (fresh weight growth control rate), Amaranthus retroflexus ([6]; 60 g a.i./ha)

COC(=O)C1(C)ON=C(c2cc(-c3ncc(Cl)cc3F)c(F)cc2Cl)O1 (stereo not drawn) [Compound 13]
10: activity level (fresh weight growth control rate), Setaria viridis ([1]; 60 g a.i./ha) | activity level (fresh weight growth control rate), Veronica polita ([2]; 60 g a.i./ha) | activity level (fresh weight growth control rate), Abutilon theophrasti ([3]; 60 g a.i./ha) | activity level (fresh weight growth control rate), Echinochloa crus-galli ([4]; 60 g a.i./ha) | activity level (fresh weight growth control rate), Digitaria sanguinalis ([5]; 60 g a.i./ha) | activity level (fresh weight growth control rate), Amaranthus retroflexus ([6]; 60 g a.i./ha)

Cc1cc(C)n(C(=O)C2(C)ON=C(c3cc(-c4ncc(C(F)(F)F)cc4Cl)c(F)cc3Cl)O2)n1 (racemic) [Compound 156]
10: activity level (fresh weight growth control rate), Setaria viridis ([1]; 60 g a.i./ha) | activity level (fresh weight growth control rate), Veronica polita ([2]; 60 g a.i./ha) | activity level (fresh weight growth control rate), Abutilon theophrasti ([3]; 60 g a.i./ha) | activity level (fresh weight growth control rate), Echinochloa crus-galli ([4]; 60 g a.i./ha) | activity level (fresh weight growth control rate), Digitaria sanguinalis ([5]; 60 g a.i./ha) | activity level (fresh weight growth control rate), Amaranthus retroflexus ([6]; 60 g a.i./ha)

COC(=O)C1(C)ON=C(c2cc(-c3ncc(Br)cc3Cl)c(F)cc2Cl)O1 (stereo not drawn) [Compound 5]
10: activity level (fresh weight growth control rate), Setaria viridis ([1]; 60 g a.i./ha) | activity level (fresh weight growth control rate), Veronica polita ([2]; 60 g a.i./ha) | activity level (fresh weight growth control rate), Abutilon theophrasti ([3]; 60 g a.i./ha) | activity level (fresh weight growth control rate), Echinochloa crus-galli ([4]; 60 g a.i./ha) | activity level (fresh weight growth control rate), Digitaria sanguinalis ([5]; 60 g a.i./ha) | activity level (fresh weight growth control rate), Amaranthus retroflexus ([6]; 60 g a.i./ha)
